Source: patent US20210330611A1, “THERAPY FOR NEUROLOGICAL DISEASES/DISORDERS” (priority 2020, published 2021)
Where “and” joins values, the source holds several entries; their conditions need not be identical. Equal entries are not always repeated. Where two headings read alike, the source gives them in different places.

Columns and labels:
primary rat microglia [1] = experiment: Cell toxicity (dead cells, size <150 μm2) in coated fibrin (cFib) assay;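 also: share of dead cells sized under 150 µm2 at 10 µM in fibrin-stimulated microglia HTS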
[2] = tested on: fibrin- and LPS-induced microglia activation; experiment: cells; format: cell-based, rat
[3] = tested on: fibrin-induced microglia activation; experiment: Image-based assay of fibrin-induced microglia activation (HTS and dose response); format: cell-based, rat; settings: Rattus norvegicus, Microglia, primary microglia HTS, fibrin stimulation; increased cell size (>800 μm^2) as marker of activation; read-out: Fibrin % inhibition
primary rat microglia [4] = experiment: Cell toxicity (dead cells, size <150 μm2) in LPS assay
[5] = tested on: LPS-induced microglia activation; experiment: Image-based assay of LPS-induced microglia activation (HTS and dose response); format: cell-based, rat; settings: for inhibition at 10 µM: Rattus norvegicus, Microglia, read-out: LPS % inhibition
[6] = primary microglia HTS, fibrin stimulation, decreased size (<150 μm^2) as marker of toxicity
[7] = quadrant by fibrin and LPS inhibition in HTS of 1907 compounds
[8] = primary microglia HTS, LPS stimulation, decreased size (<150 μm^2) as marker of toxicity
[9] = primary HTS, 10 μM, LPS-stimulated primary microglia
[10] = primary HTS, 10 μM, fibrin assay, dead cells size <150 μm2
[11] = primary HTS, 10 μM, LPS assay, dead cells size <150 μm2
[12] = 48 h, primary microglia HTS, LPS stimulation, activation = cell size >800 μm2
[13] = primary microglia HTS, fibrin stimulation, toxicity = cell size <150 μm2
[14] = primary microglia HTS, LPS stimulation, toxicity = cell size <150 μm2
[15] = primary microglia HTS, 10 μM, LPS-stimulated, cell size >800 μm^2 as marker of activation
[16] = primary microglia HTS, 10 μM, fibrin assay, cell size <150 μm^2 as marker of toxicity
[17] = HTS of 1907 compounds, quadrant by fibrin and LPS inhibition
[18] = primary microglia HTS, 10 μM, LPS assay, cell size <150 μm^2 as marker of toxicity

CCCC1O[C@@H]2C[C@H]3[C@@H]4CCC5=CC(=O)C=C[C@]5(C)[C@H]4[C@@H](O)C[C@]3(C)[C@]2(C(=O)CO)O1 (stereo partly shown) [Budesonide]
Fibrin % cell toxicity (primary rat microglia [1]; [6]): 3% and 6% | Quadrant (FIG. 5b) [2, 7]: Q2 | inhibition at 10 µM [3]: 110% | LPS % cell toxicity (primary rat microglia [4]; [8]): 5% and 1%

CC(C)(O/N=C(\C(=O)N[C@@H]1C(=O)N2C(C(=O)[O-])=C(C[n+]3ccccc3)CS[C@H]12)c1csc(N)n1)C(=O)O [Ceftazidime]
inhibition at 10 µM [5, 9]: 17% | LPS % inhibition [5, 9]: 30% | Fibrin % cell toxicity (primary rat microglia [1]; [10]): 1% | Quadrant (FIG. 5b) ([2]; primary HTS, 10 μM): Q4 | LPS % cell toxicity (primary rat microglia [4]; [11]): 1%

CN(C)CCCC1(c2ccc(F)cc2)OCc2cc(C#N)ccc21 (stereo not shown) [Citalopram]
inhibition at 10 µM [5, 9]: 10% | LPS % inhibition [5, 9]: 8% | Fibrin % cell toxicity (primary rat microglia [1]; [10]): 0% | Quadrant (FIG. 5b) ([2]; primary HTS, 10 μM): Q4 | LPS % cell toxicity (primary rat microglia [4]; [11]): 0%

CC(=O)[C@@]1(O)CC[C@H]2[C@@H]3C[C@H](C)C4=CC(=O)C=C[C@]4(C)[C@@]3(F)[C@@H](O)C[C@@]21C [Fluorometholone]
Fibrin % cell toxicity (primary rat microglia [1]; [6]): 6% and 3% | Quadrant (FIG. 5b) [2, 7]: Q2 | inhibition at 10 µM [3]: 104% | LPS % cell toxicity (primary rat microglia [4]; [8]): 1% and 7%

CCC(=O)O[C@]1(C(=O)SCF)[C@H](C)C[C@H]2[C@@H]3C[C@H](F)C4=CC(=O)C=C[C@]4(C)[C@@]3(F)[C@@H](O)C[C@@]21C [Fluticasone Propionate]
Fibrin % cell toxicity (primary rat microglia [1]; [6]): 7% and 5% | Quadrant (FIG. 5b) [2, 7]: Q2 | inhibition at 10 µM [3]: 108% | LPS % cell toxicity (primary rat microglia [4]; [8]): 3% and 4%

Nc1nc2ncc(CNc3ccc(C(=O)N[C@@H](CCC(=O)O)C(=O)O)cc3)nc2c(=O)[nH]1 [Folic Acid]
inhibition at 10 µM [5, 12]: 22% | Fibrin % cell toxicity (primary rat microglia [1]; [13]): 1% | Quadrant (FIG. 5b) [2, 7]: Q4 | LPS % cell toxicity (primary rat microglia [4]; [14]): 0% and 1%

NCC1(CC(=O)O)CCCCC1 [Gabapentin]
inhibition at 10 µM [5, 12]: 19% | Fibrin % cell toxicity (primary rat microglia [1]; [13]): 1% | Quadrant (FIG. 5b) [2, 7]: Q4 | LPS % cell toxicity (primary rat microglia [4]; [14]): 1% and 0%

CC[C@H](C)[C@H]1O[C@]2(CC[C@@H]1C)C[C@@H]1C[C@@H](C/C=C(\C)[C@@H](O[C@H]3C[C@H](OC)[C@@H](O[C@H]4C[C@H](OC)[C@@H](O)[C@H](C)O4)[C@H](C)O3)[C@@H](C)/C=C/C=C3\CO[C@@H]4[C@H](O)C(C)=C[C@@H](C(=O)O1)[C@]34O)O2 [Ivermectin]
LPS % inhibition ([5]; primary microglia HTS, LPS stimulation, activation = cell size >800 μm2): 10% and 19% | Fibrin % cell toxicity (primary rat microglia [1]; [13]): 1% and 0% | Quadrant (FIG. 5b) [2, 7]: Q4 | LPS % cell toxicity (primary rat microglia [4]; [14]): 0%

CC(=O)/N=c1/sc(S(N)(=O)=O)nn1C [Methazolamide]
inhibition at 10 µM ([5]; 48 h, primary microglia HTS, LPS stimulation, increased cell size (>800 μm^2) as marker of activation): 10% | Fibrin % cell toxicity (primary rat microglia [1]; [6]): 1% | Quadrant (FIG. 5b) [2, 7]: Q4 | LPS % cell toxicity (primary rat microglia [4]; [8]): 0%

NC[C@H](O)c1ccc(O)c(O)c1 [Norepinephrine]
Fibrin % cell toxicity (primary rat microglia [1]; [6]): 1% | Quadrant (FIG. 5b) [2, 7]: Q4 | LPS % cell toxicity (primary rat microglia [4]; [8]): 0%

C[C@@H]1[C@H](O)[C@@H](C)/C=C/C=C/CC/C=C/C=C/C=C/C=C/C(O[C@H]2O[C@H](C)[C@@H](O)[C@H](N)[C@@H]2O)CC2O[C@](O)(CC(O)C(O)CCC(O)CC(O)CC(O)CC(=O)O[C@H]1C)CC(O)C2C(=O)O (stereo partly shown) [Nystatin]
Fibrin % cell toxicity (primary rat microglia [1]; [6]): 0% and 1% | Quadrant (FIG. 5b) [2, 7]: Q4 | LPS % cell toxicity (primary rat microglia [4]; [8]): 1%

CCN1CCCC1CNC(=O)c1cc(S(N)(=O)=O)ccc1OC (stereo not shown) [Sulpiride]
inhibition at 10 µM [5, 15]: 11% | LPS % inhibition [5, 15]: 7% | Fibrin % cell toxicity (primary rat microglia [1]; [16]): 1% | Quadrant (FIG. 5b) [2, 17]: Q4 | LPS % cell toxicity (primary rat microglia [4]; [18]): 0%

C[C@]1(Cn2ccnn2)[C@H](C(=O)O)N2C(=O)C[C@H]2S1(=O)=O [Tazobactam]
Fibrin % cell toxicity (primary rat microglia [1]; [16]): 1% and 0% | Quadrant (FIG. 5b) [2, 17]: Q4 | LPS % cell toxicity (primary rat microglia [4]; [18]): 0%

CC(C)N1CCN(c2ccc(OCC3COC(Cn4cncn4)(c4ccc(Cl)cc4Cl)O3)cc2)CC1 (stereo not shown) [Terconazole]
Fibrin % cell toxicity (primary rat microglia [1]; [16]): 1% | Quadrant (FIG. 5b) [2, 17]: Q4 | LPS % cell toxicity (primary rat microglia [4]; [18]): 0%

COc1cccc(C2(O)CCCCC2CN(C)C)c1 (stereo not shown) [Tramadol]
Fibrin % cell toxicity (primary rat microglia [1]; [16]): 1% | Quadrant (FIG. 5b) [2, 17]: Q4 | LPS % cell toxicity (primary rat microglia [4]; [18]): 0%
